One test concerns the target Carbonic anhydrase 12 (Homo sapiens, UniProt O43570). Briefly: Inhibition of human recombinant catalytic domain CA12.
For a further test, the target named is Carbonic anhydrase 14 (Homo sapiens, UniProt Q9ULX7). As to the kind of experiment: Inhibition of human recombinant full length CA14.
The next test addresses Carbonic anhydrase 9 (Homo sapiens, UniProt Q16790). Briefly: Inhibition of human recombinant catalytic domain CA9.

pKi: −log10 of the molar value.

Three compounds from ChEMBL document CHEMBL1140609, “Carbonic anhydrase inhibitors. Inhibition of transmembrane isozymes XII (cancer-associated) and XIV with anions” (Bioorg Med Chem Lett, 2007) can be followed below.

Sequence of Carbonic anhydrase 12 (O43570 whole entry, the tested form may be a part): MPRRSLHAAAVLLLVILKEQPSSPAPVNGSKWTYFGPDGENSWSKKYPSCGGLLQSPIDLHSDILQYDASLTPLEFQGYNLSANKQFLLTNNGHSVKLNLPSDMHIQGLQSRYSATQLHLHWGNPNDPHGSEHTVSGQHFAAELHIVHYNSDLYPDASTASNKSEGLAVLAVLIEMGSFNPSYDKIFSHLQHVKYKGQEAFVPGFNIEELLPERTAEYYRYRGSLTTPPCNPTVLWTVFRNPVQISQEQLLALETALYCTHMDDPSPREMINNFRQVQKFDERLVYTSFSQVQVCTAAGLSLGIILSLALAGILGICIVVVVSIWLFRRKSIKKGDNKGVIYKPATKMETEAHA
Sequence of Carbonic anhydrase 14 (Q9ULX7 whole entry, the tested form may be a part): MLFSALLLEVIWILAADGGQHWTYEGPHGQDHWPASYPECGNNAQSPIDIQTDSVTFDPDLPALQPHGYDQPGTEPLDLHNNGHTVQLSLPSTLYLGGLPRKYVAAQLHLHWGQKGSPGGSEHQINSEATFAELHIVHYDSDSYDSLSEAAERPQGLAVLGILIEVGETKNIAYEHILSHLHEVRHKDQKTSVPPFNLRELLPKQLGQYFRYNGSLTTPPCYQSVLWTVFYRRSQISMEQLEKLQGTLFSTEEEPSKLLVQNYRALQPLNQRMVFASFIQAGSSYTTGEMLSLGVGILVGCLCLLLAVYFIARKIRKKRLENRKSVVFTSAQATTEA

`NS(N)(=O)=O` [SULFAMIDE]: the pKi is 3.08 at Carbonic anhydrase 12 and 3.12 at Carbonic anhydrase 14.

Regarding `OB(O)c1ccccc1` [PHENYLBORONIC ACID], the results for the pKi on Carbonic anhydrase 12 and at Carbonic anhydrase 14 were 3.10 and 4.04, respectively.

`NS(=O)(=O)O` [SULFAMATE]: the pKi on Carbonic anhydrase 9 was 4.04; at Carbonic anhydrase 12, 3.15; on Carbonic anhydrase 14, 2.96.
